Results taken from patent publication US5288720A, “Angiotensin II receptor blocking 2,3,6 substituted quinazolinones” (American Cyanamid Company, priority 1993, dated 1994).

Tested on: ANGIOTENSIN II VASOPRESSOR RESPONSE
Assay: AII Challenge: blockade of angiotensin II vasopressor response in conscious SHR
Type: in vivo, rat (Conscious Male Okamoto-Aoki SHR)
Conditions: SHR n=2
Procedure, shortened: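 Conscious male Okamoto-Aoki SHR (16-20 weeks, ~330 g) cannulated in aorta and vena cava under local procaine; angiotensin II (human) 0.05 and 0.1 ug/kg i.v. given before and at 30-300 min after test compound i.v., i.p. or orally. Rise in systolic pressure (mmHg) expressed as % blockade versus each rat's predose response.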

[1] = 3 mg/kg i.v., AII 0.05 mcg/kg IV, 30 min post dose
[2] = 3 mg/kg i.v., AII 0.05 mcg/kg IV, 60 min post dose
[3] = 3 mg/kg i.v., AII 0.05 mcg/kg IV, 90 min post dose
[4] = 3 mg/kg i.v., AII 0.05 mcg/kg IV, 120 min post dose
[5] = 3 mg/kg i.v., AII 0.05 mcg/kg IV, 180 min post dose
[6] = 3 mg/kg i.v., AII 0.05 mcg/kg IV, 240 min post dose
[7] = 3 mg/kg i.v., AII 0.05 mcg/kg IV, 300 min post dose
[8] = 3 mg/kg i.v., AII 0.1 mcg/kg IV, 30 min post dose
[9] = 3 mg/kg i.v., AII 0.1 mcg/kg IV, 60 min post dose
[10] = 3 mg/kg i.v., AII 0.1 mcg/kg IV, 90 min post dose
[11] = 3 mg/kg i.v., AII 0.1 mcg/kg IV, 120 min post dose
[12] = 3 mg/kg i.v., AII 0.1 mcg/kg IV, 180 min post dose
[13] = 3 mg/kg i.v., AII 0.1 mcg/kg IV, 240 min post dose
[14] = 3 mg/kg i.v., AII 0.1 mcg/kg IV, 300 min post dose
[15] = 3 mg/kg p.o., AII 0.05 mcg/kg IV, 30 min post dose
[16] = 3 mg/kg p.o., AII 0.05 mcg/kg IV, 60 min post dose
[17] = 3 mg/kg p.o., AII 0.05 mcg/kg IV, 90 min post dose
[18] = 3 mg/kg p.o., AII 0.05 mcg/kg IV, 120 min post dose
[19] = 3 mg/kg p.o., AII 0.05 mcg/kg IV, 180 min post dose
[20] = 3 mg/kg p.o., AII 0.1 mcg/kg IV, 30 min post dose
[21] = 3 mg/kg p.o., AII 0.1 mcg/kg IV, 60 min post dose
[22] = 3 mg/kg p.o., AII 0.1 mcg/kg IV, 90 min post dose
[23] = 3 mg/kg p.o., AII 0.1 mcg/kg IV, 120 min post dose
[24] = 3 mg/kg p.o., AII 0.1 mcg/kg IV, 180 min post dose
[25] = 10 mg/kg p.o., AII 0.05 mcg/kg IV, 30 min post dose
[26] = 10 mg/kg p.o., AII 0.05 mcg/kg IV, 60 min post dose
[27] = 10 mg/kg p.o., AII 0.05 mcg/kg IV, 90 min post dose
[28] = 10 mg/kg p.o., AII 0.05 mcg/kg IV, 120 min post dose
[29] = 10 mg/kg p.o., AII 0.05 mcg/kg IV, 180 min post dose
[30] = 10 mg/kg p.o., AII 0.05 mcg/kg IV, 240 min post dose
[31] = 10 mg/kg p.o., AII 0.05 mcg/kg IV, 300 min post dose
[32] = 10 mg/kg p.o., AII 0.1 mcg/kg IV, 30 min post dose
[33] = 10 mg/kg p.o., AII 0.1 mcg/kg IV, 60 min post dose
[34] = 10 mg/kg p.o., AII 0.1 mcg/kg IV, 90 min post dose
[35] = 10 mg/kg p.o., AII 0.1 mcg/kg IV, 120 min post dose
[36] = 10 mg/kg p.o., AII 0.1 mcg/kg IV, 180 min post dose
[37] = 10 mg/kg p.o., AII 0.1 mcg/kg IV, 240 min post dose
[38] = 10 mg/kg p.o., AII 0.1 mcg/kg IV, 300 min post dose

With `CCCCc1nc2ccc(C(O)C3CCCN(C)C3=O)cc2c(=O)n1Cc1ccc(-c2ccccc2-c2nn[nH]n2)cc1` (single isomer, unassigned; isomer 1) [Example 37, 2-Butyl-6-hydroxy(1-methyl-2-oxo-3-piperidinyl)methyl]-3-[[2'-(1H-tetrazol-5-yl)[1,1'-biphenyl]-4-yl]methyl]-4(3H)-quinazolinone isomer 1] the “% Inhibition of AII vasopressor response” value [1] was 100%, the “Average Change (systolic blood pressure response to AII)” value (“Average Change” for short) [1] was 0 mmHg and the “% Inhibition of AII vasopressor response” value [2] was 100%. For the same molecule, the “Average Change” value [2] was 0 mmHg, the “% Inhibition of AII vasopressor response” value [3] was 100% and the “Average Change” value [3] was 0 mmHg. For the same molecule, the “% Inhibition of AII vasopressor response” value [4] was 91%, the “Average Change” value [4] was 2.5 mmHg and the “% Inhibition of AII vasopressor response” value [5] was 55%. The “Average Change” value [5] was 12.5 mmHg, the “% Inhibition of AII vasopressor response” value [6] was 64% and the “Average Change” value [6] was 10 mmHg. The “% Inhibition of AII vasopressor response” value [7] was 36%, the “Average Change” value [7] was 17.5 mmHg and the “% Inhibition of AII vasopressor response” value [8] was 92%. The “Average Change” value [8] was 2.5 mmHg, the “% Inhibition of AII vasopressor response” value [9] was 92% and the “Average Change” value [9] was 2.5 mmHg. The “% Inhibition of AII vasopressor response” value [10] was 85%, the “Average Change” value [10] was 5 mmHg and the “% Inhibition of AII vasopressor response” value [11] was 85%. The “Average Change” value [11] was 5 mmHg, the “% Inhibition of AII vasopressor response” value [12] was 66% and the “Average Change” value [12] was 11 mmHg. The “% Inhibition of AII vasopressor response” value [13] was 23%, the “Average Change” value [13] was 25 mmHg and the “% Inhibition of AII vasopressor response” value [14] was 0%. For the same molecule, the “Average Change” value [14] was 32.5 mmHg, the “% Inhibition of AII vasopressor response” value [15] was 53% and the “Average Change” value [15] was 19 mmHg. For the same molecule, the “% Inhibition of AII vasopressor response” value [16] was 29%, the “Average Change” value [16] was 28.5 mmHg and the “% Inhibition of AII vasopressor response” value [17] was 29%. For the same molecule, the “Average Change” value [17] was 28.5 mmHg, the “% Inhibition of AII vasopressor response” value [18] was 13% and the “Average Change” value [18] was 35 mmHg. The “% Inhibition of AII vasopressor response” value [19] was 0%, the “Average Change” value [19] was 40 mmHg and the “% Inhibition of AII vasopressor response” value [20] was -6%. For the same molecule, the “Average Change” value [20] was 47.5 mmHg, the “% Inhibition of AII vasopressor response” value [21] was 30% and the “Average Change” value [21] was 31.5 mmHg. For the same molecule, the “% Inhibition of AII vasopressor response” value [22] was 11%, the “Average Change” value [22] was 40 mmHg and the “% Inhibition of AII vasopressor response” value [23] was 22%. For the same molecule, the “Average Change” value [23] was 35 mmHg, the “% Inhibition of AII vasopressor response” value [24] was 22% and the “Average Change” value [24] was 35 mmHg. For the same molecule, the “% Inhibition of AII vasopressor response” value [25] was 67%, the “Average Change” value [25] was 17.5 mmHg and the “% Inhibition of AII vasopressor response” value [26] was 65%. For the same molecule, the “Average Change” value [26] was 18.5 mmHg, the “% Inhibition of AII vasopressor response” value [27] was 62% and the “Average Change” value [27] was 20 mmHg. The “% Inhibition of AII vasopressor response” value [28] was 67%, the “Average Change” value [28] was 17.5 mmHg and the “% Inhibition of AII vasopressor response” value [29] was 57%. The “Average Change” value [29] was 22.5 mmHg, the “% Inhibition of AII vasopressor response” value [30] was 43% and the “Average Change” value [30] was 30 mmHg. The “% Inhibition of AII vasopressor response” value [31] was 52%, the “Average Change” value [31] was 25 mmHg and the “% Inhibition of AII vasopressor response” value [32] was 40%. For the same molecule, the “Average Change” value [32] was 30 mmHg, the “% Inhibition of AII vasopressor response” value [33] was 26% and the “Average Change” value [33] was 37 mmHg. For the same molecule, the “% Inhibition of AII vasopressor response” value [34] was 40%, the “Average Change” value [34] was 30 mmHg and the “% Inhibition of AII vasopressor response” value [35] was 55%. The “Average Change” value [35] was 22.5 mmHg, the “% Inhibition of AII vasopressor response” value [36] was 35% and the “Average Change” value [36] was 32.5 mmHg. The “% Inhibition of AII vasopressor response” value [37] was 40%, the “Average Change” value [37] was 30 mmHg and the “% Inhibition of AII vasopressor response” value [38] was 35%. For the same molecule, the “Average Change” value [38] was 32.5 mmHg.
